According to PMC10515590 (ACS Omega, 2023):
In brackets after ≈: the same amount, converted by molar mass. Where two headings read alike, the source gives them in different places. Each block holds one compound with its values, some of them ahead of it.

What was measured:
[1] = cited from earlier work
[2] = Pharmacokinetic study after oral administration; type: in vivo, BALB/c mice; conditions: female, BALB/c, mouse, plasma, 30 mg/kg
[3] = Shake flask solubility in pH 6.8 phosphate buffer; type: physicochemical
[4] = after oral administration; cited from earlier work
[5] = Powder dissolution, USP apparatus II; type: physicochemical; conditions: pH 6.8
[6] = first pKa, 24 for cocrystal coformers

SMILES: O=C(O)c1ccc(O)cc1O [2,4-dihydroxybenzoic acid]
pKa ([1]; second pKa, ref 24 for 2,4-dihydroxybenzoic acid): 8.5

SMILES: O=C(O)c1c(O)cccc1O [2,6-dihydroxybenzoic acid]
log P ([1]; coformers): 2.14

AUC(0-t) [2]: 36900 ng·h/mL
Cmax [2]: 7010 ± 187 ng/mL
solubility at 4 h [3]: 0.687 mg/mL (≈ 5.05 mM)
solubility at 1 h [5]: 0.676 mg/mL (≈ 4.97 mM)
SMILES: Oc1ncnc2[nH]ncc12 [ALO, 1H-pyrazolo[3,4-d]pyrimidine-4(2H)-one]
time within which the drug is metabolized [4]: ≤ 2 h
aqueous solubility [1]: 0.8 mg/mL (≈ 5.88 mM)
pKa [1, 6]: 10.1

SMILES: O=C(O)CCCC(=O)O [glutaric acid]
solubility of coformer ([1]; highly soluble coformers): 1600 mg/mL

SMILES: O=C(O)c1ccnc(C(=O)O)c1 [pyridine 2,4-dicarboxylic acid]
pKa [1, 6]: 2.15
